Publication PMC7754465, “Multiparameter Kinetic Analysis for Covalent Fragment Optimization by Using Quantitative Irreversible Tethering (qIT)” (Chembiochem, 2020)

Biological target: His-Cdk2(F80C,C177A,D145N) (Homo sapiens, UniProt P24941, C177A/D145N/F80C)
Experiment: qIT assay with His-Cdk2(F80C,C177A,D145N)
Assay type: binding
Details: acrylamide 69 0.5 mM, thiol 5 µM
Experimental: site that is normally occupied by the adenosine core of ATP. Indeed, the methyl ester engages in a hydrogen-bonding interaction with the backbone amide of Leu83, mimicking the pyrimidine pharmacophore of ATP, while the acrylamide carbonyl itself is hydrogen bonded to the ε-amine of Lys32.
Next the 57-Cdk2(F80C,C177A) conjugate was prepared and crystallised by heterogeneous microseeding in an analogous manner. This complex diffracted to 2.0 GS H Å […]
Although acrylamide Cdk2(F80C,C177A,D145N) 57 could be O […]
modelled into the electron density map with a cov1.25 alent bond to Cys80, the ligand-binding mode was less clearly defined (Figure 72b). It is postulated that either the ligand binds in N […]
multiple unresolved modes or that the protein was not fully modified such that the ligand 69 […]
clin A2 to form active holoenzymes. The holoenzymes were incubated with peptide substrate, ATP, NADH, PEP, LD and PK Tim e ( h) ! at 37 °C and the absorbance measured over time in clear 384-well plates. Kinase activity is determined from the gradient of Figure the absorbance over time (between 100084. Fluorescence data (normalised against DMSO –3000 s) and normalised relative to pCdk2(WT) = 100% and cyclin A2 only = 0% (n = control) from qIT assay for acrylamide […]
glutathione (5 µM). Vertical error bars represent the standard deviation of fluorogenic thiol quantifications, performed in duplicate. […]

k, thiol Cdk2(F80C,C177A,D145N): 0.23 h–1
Compound: C=CC(=O)N1CCN(CC)c2ccccc21 [compound 6]
